Results taken from patent US6800727B2, “Peptides with increased + charge and hydrophobicity by substituting one or more amino acids of CA-MA peptide and pharmaceutical compositions containing thereof” (Chosun University, priority 2001, dated 2004).
Residues, ends and D or L forms follow the SMILES beside them.

What was measured:
[1] = system: Human red blood corpuscles; assay: Cytotoxicity: hemolysis capacity; assay type: cell-based; conditions: up to 12.5 μM
Protocol: Human red blood corpuscles were diluted with PBS (pH 7.0) to the concentration of 8%, and loaded into each wells of 96-well plate. Synthetic peptide of the present invention was half-fold diluted consecutively from 12.5 μM/well, followed by reacting with the red blood corpuscles for 1 hour at 37° C. After centrifugation, OD414 was measured to determine the amount of hemoglobin in the supernatant. At this time, CA-MA peptide was used as a comparative group and melittin was used as a positive control. In order to investigate the level of hemolysis, 1% triton X-100 was added, and then OD was measured. Hemolysis capacity of triton X-100 was regarded as 100%, with which hemolysis capacity of the synthetic peptide was compared and calculated according to the below <Mathematical Formula 1>.
% hemolysis=(OD A−OD B/OD C−OD B)×100

[2] = system: Bacillus subtilis (KCTC 1918); assay: MIC measurement, anti-bacterial activity; assay type: cell-based; conditions: summary of the strains of Table 1
Protocol: In order to measure the anti-bacterial activity of the peptide synthesized in Example 1, minimum inhibitory concentration (MIC) of the peptide was measured.
The present inventors used Bacillus subtilis (KCTC 1918) and Staphylococus epidermidis (KCTC 1917) as Gram-positive bacteria, and Pseudomonas aeruginosa (KCTC 1637) and Salmonella typhimurium (KCTC 1926) as Gram-negative bacteria for this experiment. All the bacteria used in this experiment were given by Korea Research Institute of Bioscience and Biotechnology (KRIBB). Each bacterial strain was cultured in LB medium(1% bacto-trypton, 0.5% bacto-yeast extract, 1% sodium chloride) to the mid-log phase, and diluted with 1% bacto-peptone medium at the concentration of 1×10^4 cells/100 μl. The diluted bacteria were loaded into micro-titrate plate. Antibiotic peptide synthesized in Example 1 and CA-MA peptide (as a comparative group) were half-fold diluted consecutively from 25 μM/well, and added into the plate for culture at 37° C. for 6 hours. Finally, the MIC of each strain was determined by observing OD620 with a micro-titrate plate reader.

[3] = system: Candida albicans (TIMM 1768); assay: Anti-fungal activity, MIC by MTT assay; assay type: cell-based; conditions: summary of the fungi of Table 2
Protocol: In order to measure the anti-fungal activity of the synthetic peptide of the present invention, the present inventors performed MTT assay with Candida albicans (TIMM 1768) and Tricosphoron beigelil (KCTC 7707). Particularly, PDB medium (20% potato infusion frum, 2% bacto dextrose) containing various fungi was loaded into the wells (100 μl/well) of 96-well plate. Antibiotic peptides of the present invention and CA-MA peptide (as a comparative group) were half-fold diluted consecutively, and added into the plate for further culturing. 10 μl of MTT solution ([…], 5 mg/ml) was added into each well followed by further culturing for 5-6 hours. Formazan produced by mitochondria enzymes of living cells was dissolved in 100 μl of 0.04 N HCl-isopropanol. Finally, OD570 was measured by using ELISA reader to determine the degree of MIC.

Bacillus subtilis [4] = assay: Visualization of anti-bacterial activity, colonies on LB plate; assay type: cell-based; conditions: 4×10^5 B. subtilis cells, 1 μM peptide, 2 hours at 37° C.; FIG. 1
Protocol: (§1) In order to visualize the antibiotic activity of the synthetic peptide of the present invention on the plate, Pseudomonas aeruginosa and Bacillus subtilis were inoculated in LB medium (1% bacto trypton, 0.5% yeast extract, 1% sodium chloride), and cultured to mid-log phase. Particularly, 4×10^5 P. aeruginosa cells were loaded into the medium, and 4 μM of synthetic peptide was added thereto. 4×10^5 B. subtilis cells were also loaded into the medium, and 1 μM of synthetic peptide was added thereto. After culturing for 2 hours at 37° C., the culture fluid was smeared on LB plate to visualize the cells. At this time, CA-MA peptide was used as a comparative group.

Pseudomonas aeruginosa [5] = assay: Visualization of anti-bacterial activity, colonies on plate; assay type: cell-based; conditions: 4×10^5 P. aeruginosa cells, 4 μM peptide, 2 hours at 37° C.; FIG. 2
Protocol: as §1

Bacillus subtilis [6] = assay: Anti-bacterial activity observation with SEM; assay type: cell-based; conditions: 0.78 μM, 30 minutes at 37° C.; FIG. 3
Protocol: (§2) Bacillus subtilis (Gram-positive) and Pseudomonas aeruginosa (Gram-negative) cells were cultured in LB medium (1% bacto trypton, 0.5% bacto yeast extract, 1% sodium chloride) to mid-log phase, and the cells were diluted with 10 mM of Na-phosphate buffer containing 100 mM of NaCl) at the concentration of 10^8 cells/ml. Synthetic peptide of the present invention and CA-MA peptide (as a comparative group) were added into the diluted cell culture medium (final conc. 0.78 μM in B. subtilis culture, 1.56 μM in P. aeruginosa culture), followed by further culturing for 30 minutes at 37° C. 0.2 M Na-phosphate buffer containing 5% glutaraldehyde was added into the medium, and the cells were fixed for 2 hours at 4° C. The cells were filtered with isopore filters (0.2 μm pore size, Millipore, Bedford, Mass., USA), and washed with 0.1 M Na-cacodylate buffer (pH 7.4). The filters were treated with 1% osmium tertoxide and dehydrated.

Pseudomonas aeruginosa [7] = assay: Anti-bacterial activity observation with SEM; assay type: cell-based; conditions: 1.56 μM, 30 minutes at 37° C.; FIG. 4
Protocol: as §2

Bacillus subtilis [8] = assay: Membrane dynamic condition, DPH fluorescence anisotropy; assay type: cell-based; conditions: 6.25 μM˜0.097 μM, 2 hours at 37° C.; FIG. 5A
Protocol: (§3) The present inventors performed the below experiment in order to investigate the dynamic condition of lipid membrane of bacteria cells treated with synthetic peptide of the present invention. Particularly, B. subtilis (Gram-positive) and P. aeruginosa (Gram-negative) were cultured to mid-log phase in LB medium (1% bacto trypton, 0.5% bacto yeast extract, 1% sodium chloride). And the antibiotic peptide of the present invention and CA-MA peptide (as a comparative group) were treated (6.25 μM˜0.097 μM, half-fold diluted) thereto. Each strains were further cultured for 2 hours at 37° C. After fixing with 0.25% formaldehyde for 1 hour at room temperature, cultured cells were washed with PBS (pH 7.4), and then frozen in liquid nitrogen. For the fluorescent labeling, PBS (pH 7.4) was added until OD450 reached to 0.25, and DPH (1,6-diphenyl-1,3,5-hexatriene) dissolved in tetrahydrofuran was added (final conc. […]), followed by further culturing for 45 minutes at 37° C. Steady-state fluorescence anisotropy was determined by measuring the strength of fluorescence with spectrofluorometer (HITACHI F-3010, Tokyo, Japan) at 330 nm and 450 nm.

Pseudomonas aeruginosa [9] = assay: as above; assay type: cell-based; conditions: 6.25 μM˜0.097 μM, 2 hours at 37° C.; FIG. 5B
Protocol: as §3

[10] = system: Calu-6 (a human lung cancer cell line); assay: Anticancer activity, MTT assay; assay type: cell-based; conditions: for anti-cancer activity: Calu-6
Protocol: (§4) In order to measure the anticancer activity of the synthetic peptide of the present invention, the present inventors performed MTT assay with Calu-6 (a human lung cancer cell line), SNU 601 (a human stomach cancer cell line) and Jurkat (a T-cell lymphoma cell line) cells. Firstly, 90 μl of each cell line (2×10^5 cells/ml) was loaded into each well of 96-well plate. At this time, only medium contained wells were used as a control. After shaking well, the cells were cultured in CO2 incubator for 3 days. Formazan produced by mitochondria enzymes of living cells was dissolved in 100 μl of 0.04 N HCl-isopropanol, and finally, OD540 was measured by using ELISA reader. The anti-cancer activity of antibiotic peptide of the present invention was represented by a percentage (OD of synthetic peptide treated well/OD of control×100).

[11] = system: Jurkat (a T-cell lymphoma cell line); assay: Anticancer activity, MTT assay; assay type: cell-based
Protocol: as §4

[12] = system: SNU 601 (a human stomach cancer cell line); assay: Anticancer activity, MTT assay; assay type: cell-based; conditions: for anti-cancer activity: SNU 601
Protocol: as §4

[13] = Acute toxicity test in rat via non-oral administration; assay type: in vivo; conditions: SD, in vivo, 1 g/kg/15 ml, intravenous, read-out: level up to which no toxic change is caused
Protocol: (§5) The following experiments were performed to see if the synthetic peptide of the present invention has acute toxicity in rat.
(§6) 6-week old SPF SD line rats were used in the tests for acute toxicity. Synthetic peptide of the present invention represented by the SEQ. ID. NO: 2 was suspended in 0.5% methyl cellulose solution and intravenous injected once to 2 rats per group at the dosage of 1 g/kg/15 ml. Death, clinical symptoms, and weight change in rats were observed, hematological tests and biochemical tests of blood were performed, and any abnormal signs in the gastrointestinal organs of chest and abdomen were checked with eyes during autopsy.

SPF SD line rats = assay: as above; assay type: in vivo; conditions: single intravenous injection, 1 g/kg/15 ml in 0.5% methyl cellulose
Protocol: as §5, §6

CC[C@H](C)[C@H](NC(=O)CN)C(=O)NCC(=O)N[C@@H](C)C(=O)N[C@H](C(=O)N[C@@H](CC(C)C)C(=O)N[C@@H](CCCCN)C(=O)N[C@H](C(=O)N[C@@H](CC(C)C)C(=O)N[C@H](C(=O)N[C@H](C(=O)NCC(=O)N[C@@H](CC(C)C)C(=O)N1CCC[C@H]1C(=O)N[C@@H](C)C(=O)N[C@@H](CC(C)C)C(=O)N[C@H](C(=O)N[C@@H](CO)C(=O)N[C@@H](Cc1c[nH]c2ccccc12)C(=O)N[C@H](C(=O)N[C@@H](CCCCN)C(=O)N[C@@H](CCCNC(=N)N)C(=O)N[C@@H](CCCCN)C(=O)N[C@@H](CCCNC(=N)N)C(=O)N[C@@H](CCC(N)=O)C(=O)N[C@@H](CCC(N)=O)C(N)=O)[C@@H](C)CC)[C@@H](C)CC)[C@@H](C)O)[C@@H](C)O)C(C)C)C(C)C [Melittin, melittin]
cytotoxicity (hemolysis), in words [1]: high cytotoxicity

CC(C)C[C@H](NC(=O)[C@H](CCCCN)NC(=O)[C@H](CCCCN)NC(=O)[C@H](CC(C)C)NC(=O)[C@H](CC(C)C)NC(=O)[C@H](CCCCN)NC(=O)[C@H](CCCCN)NC(=O)[C@H](CC(C)C)NC(=O)[C@H](CC(C)C)NC(=O)[C@@H]1CCCN1C(=O)[C@@H]1CCCN1C(=O)[C@@H]1CCCN1C(=O)[C@H](CCCCN)NC(=O)[C@H](CCCCN)NC(=O)[C@H](CC(C)C)NC(=O)[C@H](CC(C)C)NC(=O)[C@H](CCCCN)NC(=O)[C@H](CCCCN)NC(=O)[C@H](Cc1c[nH]c2ccccc12)NC(=O)[C@@H](N)CCCCN)C(=O)O [Synthetic peptide (SEQ ID. NO: 2)] (H-KWKKLLKKPPPLLKKLLKKL-OH; N-terminus and C-terminus assumed)
antibiotic activity relative to CA-MA peptide [2]: around 4 times
anti-fungal activity relative to CA-MA peptide [3]: about 2 times
cytotoxicity (hemolysis), in words [1]: did not show any cytotoxicity
colonies on LB plate (Bacillus subtilis [4]): no colony was found
anti-bacterial activity on agar plate, compared to CA-MA (Pseudomonas aeruginosa [5]): remarkable anti-bacterial activity
destroyed cells observed with SEM, versus control and CA-MA peptide (Bacillus subtilis [6]): much more destroyed cells
destroyed cells observed with SEM, versus control and CA-MA peptide (Pseudomonas aeruginosa [7]): much more destroyed cells
DPH-labeled fluorescent materials intercalated at lower position of membrane, compared to CA-MA peptide (Bacillus subtilis [8]): 15-20%
DPH-labeled fluorescent materials intercalated at lower position of membrane, compared to CA-MA peptide (Pseudomonas aeruginosa [9]): 15-20%
anti-cancer activity compared with CA-MA peptide ([10]; Calu-6, 3 days, FIG. 6A): higher than that of CA-MA peptide
anti-cancer activity ([10]; over 10 μM concentration): complete restrain of cancer cell growth
anti-cancer activity ([10]; to the concentration of 1 μM): did not showed anti-cancer activity
anti-cancer activity compared with CA-MA peptide ([11]; 3 days, FIG. 6B): higher than that of CA-MA peptide
anti-cancer activity ([11]; over 10 μM concentration): complete restrain of cancer cell growth
anti-cancer activity ([11]; to the concentration of 1 μM): did not showed anti-cancer activity
anti-cancer activity compared with CA-MA peptide ([12]; SNU 601, 3 days, FIG. 6C): higher than that of CA-MA peptide
anti-cancer activity ([12]; over 10 μM concentration): complete restrain of cancer cell growth
anti-cancer activity ([12]; to the concentration of 1 μM): did not showed anti-cancer activity
NOAEL [13]: ≥ 10 mg/kg
clinical symptoms, weight change, death (SPF SD line rats): did not cause any specific clinical symptoms, weight change, or death
hematological tests, biochemical tests of blood, autopsy (SPF SD line rats): No change was observed

CC[C@H](C)[C@H](NC(=O)CNC(=O)[C@@H](NC(=O)[C@H](CCCCN)NC(=O)[C@H](CCCCN)NC(=O)[C@H](Cc1ccccc1)NC(=O)[C@H](CC(C)C)NC(=O)[C@H](CCCCN)NC(=O)[C@H](Cc1c[nH]c2ccccc12)NC(=O)[C@@H](N)CCCCN)[C@@H](C)CC)C(=O)NCC(=O)N[C@@H](CCCCN)C(=O)N[C@@H](Cc1ccccc1)C(=O)N[C@@H](CC(C)C)C(=O)N[C@@H](Cc1c[nH]cn1)C(=O)N[C@@H](CO)C(=O)N[C@@H](C)C(=O)N[C@@H](CCCCN)C(=O)N[C@@H](CCCCN)C(=O)N[C@@H](Cc1ccccc1)C(=O)O [CA-MA] (H-KWKLFKKIGIGKFLHSAKKF-OH)
cytotoxicity (hemolysis), in words [1]: did not show any cytotoxicity
